Assay results taken from patent US6808904B2, “Herbicide-tolerant protox genes produced by DNA shuffling” (priority 1994, dated 2004).

Legend:
Assay type in all cases: cell-based
[1] = target: T1, plant protox mutants (Arabidopsis protox-1) in SASX38 (Arabidopsis thaliana, UniProt P55826, A220L/T56K); assay: Bacterial cross-tolerance testing of resistant mutant plasmids in SASX38, Arabidopsis protox-1 mutants; parameters: key to Cross tolerance, AraC-1Val / Cross tolerance, AraC-2Cys / Cross tolerance, AraC-1Thr / Cross tolerance, AraC-3Thr / Cross tolerance, AraC-2Ile / Cross tolerance, AraC-2Cys + AraC425Ser: + = 10× or more tolerant than WT; ++ = 100× or more tolerant than WT; − = no cross tolerance; details: mutant AraC-1Leu
T1 construct: contains only 17 amino acids of the putative chloroplast transit peptide; expressed in transfected cells; host or cells: E. coli SASX38 (hemG mutant)
T1 sequence (P55826 41-537 T56K/A220L): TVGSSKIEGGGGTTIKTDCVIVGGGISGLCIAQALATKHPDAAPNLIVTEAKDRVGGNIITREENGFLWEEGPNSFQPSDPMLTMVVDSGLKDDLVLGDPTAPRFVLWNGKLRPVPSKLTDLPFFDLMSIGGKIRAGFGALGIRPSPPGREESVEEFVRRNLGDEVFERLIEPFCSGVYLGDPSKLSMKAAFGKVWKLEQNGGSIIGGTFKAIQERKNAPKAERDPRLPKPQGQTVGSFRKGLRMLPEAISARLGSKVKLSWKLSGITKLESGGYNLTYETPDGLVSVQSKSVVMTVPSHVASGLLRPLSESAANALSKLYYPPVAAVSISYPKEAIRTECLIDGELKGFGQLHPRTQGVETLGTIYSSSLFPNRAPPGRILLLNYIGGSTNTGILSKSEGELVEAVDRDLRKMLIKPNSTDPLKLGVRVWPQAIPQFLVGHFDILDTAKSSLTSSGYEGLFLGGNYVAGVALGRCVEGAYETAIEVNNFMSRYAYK
Description: (§1) Resistant mutant plasmids, originally identified based on resistance against a single protox inhibitory herbicide, were tested against a spectrum of other protox inhibiting compounds. For this test, the SASX38 strain containing the wild-type plasmid is plated on a range of concentrations of each compound to determine the lethal concentration for each one. Resistant mutant plasmids in SASX38 are plated and scored for the ability to survive on a concentration of each compound at least 10 fold higher than the concentration that is lethal to the SASX38 strain containing the wild-type plasmid.

[2] = target: T2, plant protox mutants (Arabidopsis protox-1) in SASX38 (Arabidopsis thaliana, UniProt P55826, A220T/T56K); assay: as above; parameters: key to Cross tolerance, AraC-1Val / Cross tolerance, AraC-2Cys / Cross tolerance, AraC-1Thr / Cross tolerance, AraC-3Thr / Cross tolerance, AraC-2Ile / Cross tolerance, AraC-2Cys + AraC425Ser: + = 10× or more tolerant than WT; ++ = 100× or more tolerant than WT; − = no cross tolerance; details: mutant AraC-1Thr vs WT plasmid in SASX38
T2 construct: contains only 17 amino acids of the putative chloroplast transit peptide; expressed in transfected cells; host or cells: E. coli SASX38 (hemG mutant)
T2 sequence (P55826 41-537 T56K/A220T): as the sequence (P55826 41-537 T56K/A220L) above, with L180T counted along it
Description: as §1

[3] = target: T3, plant protox mutants (Arabidopsis protox-1) in SASX38 (Arabidopsis thaliana, UniProt P55826, A220V/T56K); assay: as above; parameters: key to Cross tolerance, AraC-1Val / Cross tolerance, AraC-2Cys / Cross tolerance, AraC-1Thr / Cross tolerance, AraC-3Thr / Cross tolerance, AraC-2Ile / Cross tolerance, AraC-2Cys + AraC425Ser: + = 10× or more tolerant than WT; ++ = 100× or more tolerant than WT; − = no cross tolerance; details: mutant AraC-1Val vs WT plasmid in SASX38
T3 construct: contains only 17 amino acids of the putative chloroplast transit peptide; expressed in transfected cells; host or cells: E. coli SASX38 (hemG mutant)
T3 sequence (P55826 41-537 T56K/A220V): as the sequence (P55826 41-537 T56K/A220L) above, with L180V counted along it
Description: as §1

[4] = target: T4, plant protox mutants (Arabidopsis protox-1) in SASX38 (Arabidopsis thaliana, UniProt P55826, N425S/T56K/Y426L); assay: as above; parameters: key to Cross tolerance, AraC-1Val / Cross tolerance, AraC-2Cys / Cross tolerance, AraC-1Thr / Cross tolerance, AraC-3Thr / Cross tolerance, AraC-2Ile / Cross tolerance, AraC-2Cys + AraC425Ser: + = 10× or more tolerant than WT; ++ = 100× or more tolerant than WT; − = no cross tolerance; details: mutant AraC-2Leu + AraC425Ser
T4 construct: contains only 17 amino acids of the putative chloroplast transit peptide; expressed in transfected cells; host or cells: E. coli SASX38 (hemG mutant)
T4 sequence (P55826 41-537 T56K/N425S/Y426L): as the sequence (P55826 41-537 T56K/A220L) above, with L180A, N385S, Y386L counted along it
Description: as §1

[5] = target: T5, plant protox mutants (Arabidopsis protox-1) in SASX38 (Arabidopsis thaliana, UniProt P55826, S305L/T56K/Y426I); assay: as above; parameters: key to Cross tolerance, AraC-1Val / Cross tolerance, AraC-2Cys / Cross tolerance, AraC-1Thr / Cross tolerance, AraC-3Thr / Cross tolerance, AraC-2Ile / Cross tolerance, AraC-2Cys + AraC425Ser: + = 10× or more tolerant than WT; ++ = 100× or more tolerant than WT; − = no cross tolerance; details: mutant AraC-2Ile + AraC305Leu
T5 construct: contains only 17 amino acids of the putative chloroplast transit peptide; expressed in transfected cells; host or cells: E. coli SASX38 (hemG mutant)
T5 sequence (P55826 41-537 T56K/S305L/Y426I): as the sequence (P55826 41-537 T56K/A220L) above, with L180A, S265L, Y386I counted along it
Description: as §1

[6] = target: T6, plant protox mutants (Arabidopsis protox-1) in SASX38 (Arabidopsis thaliana, UniProt P55826, T56K/Y426C); assay: as above; parameters: key to Cross tolerance, AraC-1Val / Cross tolerance, AraC-2Cys / Cross tolerance, AraC-1Thr / Cross tolerance, AraC-3Thr / Cross tolerance, AraC-2Ile / Cross tolerance, AraC-2Cys + AraC425Ser: + = 10× or more tolerant than WT; ++ = 100× or more tolerant than WT; − = no cross tolerance; details: mutant AraC-2Cys vs WT plasmid in SASX38
T6 construct: contains only 17 amino acids of the putative chloroplast transit peptide; expressed in transfected cells; host or cells: E. coli SASX38 (hemG mutant)
T6 sequence (P55826 41-537 T56K/Y426C): as the sequence (P55826 41-537 T56K/A220L) above, with L180A, Y386C counted along it
Description: as §1

[7] = target: T7, plant protox mutants (Arabidopsis protox-1) in SASX38 (Arabidopsis thaliana, UniProt P55826, T56K/Y426I); assay: as above; parameters: key to Cross tolerance, AraC-1Val / Cross tolerance, AraC-2Cys / Cross tolerance, AraC-1Thr / Cross tolerance, AraC-3Thr / Cross tolerance, AraC-2Ile / Cross tolerance, AraC-2Cys + AraC425Ser: + = 10× or more tolerant than WT; ++ = 100× or more tolerant than WT; − = no cross tolerance; details: mutant AraC-2Ile
T7 construct: contains only 17 amino acids of the putative chloroplast transit peptide; expressed in transfected cells; host or cells: E. coli SASX38 (hemG mutant)
T7 sequence (P55826 41-537 T56K/Y426I): as the sequence (P55826 41-537 T56K/A220L) above, with L180A, Y386I counted along it
Description: as §1

[8] = target: T8, plant protox mutants (MzC-1Val, maize protox-1) in SASX38 (Arabidopsis thaliana, UniProt P55826, A220V/A252T/A259N/A262P/A292S/A82G/A83V/D204A/D323E/D487E/D93A/DEL80-81/E103P/E263P/E288N/E311D/E351S/E499D/F107Y/F178L/F250I/F483L/G171P/G277A/G306S/G313K/G344N/G441S/H340Y/I100T/I174L/I370V/I421V/I485L/I71T/I87L/INS101VE/K237R/K257S/K359R/K388Q/K457N/K465V/K78R/K92R/L137F/L159P/L310S/L325V/L345I/L360F/L436V/L86V/M122V/N105E/N149E/N241T/N258K/N316V/N355D/N459T/N85D/P266A/P418D/P458S/P84G/Q240E/Q272K/R284A/R293S/S186P/S291T/S305T/S312D/S330A/S352D/S369T/S430A/S439T/S460A/S491A/S492A/S495R/S496G/T141N/T160A/T318E/T379K/T397S/T461V/T488A/T494D/T56K/V126A/V334I/V337I/V95P); assay: Bacterial cross-tolerance testing of resistant mutant plasmids in SASX38, maize protox-1 mutant; parameters: key: + = 10× or more tolerant than WT; ++ = 100× or more tolerant than WT; − = no cross tolerance; details: mutant MzC-1Val vs WT plasmid in SASX38
T8 construct: expressed in transfected cells; host or cells: E. coli SASX38 (hemG mutant)
T8 sequence (P55826 other isoform, or with tags, fused parts or gaps with the stated changes): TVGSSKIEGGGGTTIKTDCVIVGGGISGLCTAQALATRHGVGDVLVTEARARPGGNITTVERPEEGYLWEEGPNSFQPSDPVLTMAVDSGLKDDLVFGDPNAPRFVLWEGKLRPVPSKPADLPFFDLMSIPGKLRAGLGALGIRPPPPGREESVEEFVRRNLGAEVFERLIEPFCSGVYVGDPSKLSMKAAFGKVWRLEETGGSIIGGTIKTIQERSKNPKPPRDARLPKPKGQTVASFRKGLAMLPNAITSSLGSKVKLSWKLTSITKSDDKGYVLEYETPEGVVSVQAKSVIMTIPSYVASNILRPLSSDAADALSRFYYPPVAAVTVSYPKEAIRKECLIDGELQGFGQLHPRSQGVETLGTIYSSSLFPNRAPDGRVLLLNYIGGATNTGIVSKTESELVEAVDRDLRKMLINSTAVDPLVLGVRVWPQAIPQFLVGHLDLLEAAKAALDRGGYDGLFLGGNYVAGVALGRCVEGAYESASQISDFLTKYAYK
Description: as §1

Structure (SMILES) | Cross tolerance, AraC-1Leu [1] | Cross tolerance, AraC-1Thr [2] | Cross tolerance, AraC-1Val [3] | Cross tolerance, AraC-2Leu + AraC425Ser [4] | Cross tolerance, AraC-2Ile + AraC305Leu [5] | Cross tolerance, AraC-2Cys [6] | Cross tolerance, AraC-2Ile [7] | Cross tolerance, MzC-1Val [8]
CCOC(=O)COC(=O)c1cc(Oc2ccc(C(F)(F)F)cc2Cl)ccc1[N+](=O)[O-] [IV] | ++ (++ = 100× or more tolerant than WT) | ++ (++ = 100× or more tolerant than WT) | ++ (++ = 100× or more tolerant than WT) | + (+ = 10× or more tolerant than WT) | + (+ = 10× or more tolerant than WT) | − | − | −
COC(=O)CSc1cc(N=c2sc(=O)n3n2CCCC3)c(F)cc1Cl [VIIa] | ++ (++ = 100× or more tolerant than WT) | + (+ = 10× or more tolerant than WT) | + (+ = 10× or more tolerant than WT) | ++ (++ = 100× or more tolerant than WT) | ++ (++ = 100× or more tolerant than WT) | + (+ = 10× or more tolerant than WT) | ++ (++ = 100× or more tolerant than WT) | + (+ = 10× or more tolerant than WT)
CC(C)OC(=O)c1cc(-n2c(=O)cc(C(F)(F)F)n(C)c2=O)ccc1Cl [XI] | ++ (++ = 100× or more tolerant than WT) | + (+ = 10× or more tolerant than WT) | − | ++ (++ = 100× or more tolerant than WT) | ++ (++ = 100× or more tolerant than WT) | + (+ = 10× or more tolerant than WT) | ++ (++ = 100× or more tolerant than WT) | + (+ = 10× or more tolerant than WT)
CCCCCOC(=O)COc1cc(N2C(=O)C3=C(CCCC3)C2=O)c(F)cc1Cl [XIV] | ++ (++ = 100× or more tolerant than WT) | + (+ = 10× or more tolerant than WT) | + (+ = 10× or more tolerant than WT) | ++ (++ = 100× or more tolerant than WT) | ++ (++ = 100× or more tolerant than WT) | − | ++ (++ = 100× or more tolerant than WT) | + (+ = 10× or more tolerant than WT)
